The text below walks through data of patent publication US10463710B2, “Short synthetic peptide for the treatment and/or prophylaxis of autoimmune and inflammatory disorders” (MacKay Memorial Hospital, priority 2015, dated 2019).

A short description of data set [1]: in vitro. It is filed as cell-based, murine. Conditions: mouse.
Data set [2] deals with Raw264.7 macrophage cells. Description: in vitro. It is filed as cell-based, murine. Conditions: Example 1 results.

Entries after “also recorded” stand apart in the source; their conditions may differ. Ends that are not written are not given here.

Take `CC(=O)N[C@@H](CC(=O)O)C(=O)N[C@@H](CC(C)C)C(=O)N[C@@H](Cc1ccc(O)cc1)C(=O)N[C@@H](CCCNC(=N)N)C(=O)N[C@@H](C(=O)N[C@@H](CCCNC(=N)N)C(=O)N[C@@H](CO)C(N)=O)C(C)C` [7-mer DV, NH2-Asp-Leu-Tyr-Arg-(D-Val)-Arg-Ser-COOH]: the viability at 24 h, 20 μM in data set [1] (Rar264.7 cell viability) came out at 57.9 ± 6.2%.

For `CC(=O)N[C@H](CC(=O)O)C(=O)N[C@@H](CC(C)C)C(=O)N[C@@H](Cc1ccc(O)cc1)C(=O)N[C@@H](CCCNC(=N)N)C(=O)N[C@H](C(=O)N[C@@H](CCCNC(=N)N)C(=O)N[C@@H](CO)C(N)=O)C(C)C` [7-mer DD, NH2-(D-Asp)-Leu-Tyr-Arg-Val-Arg-Ser-COOH], the viability at 24 h, 20 μM in data set [1] (Rar264.7 cell viability) is 52.1 ± 1.45%.

As for `CC(=O)N[C@@H](CC(=O)O)C(=O)N[C@@H](CC(C)C)C(=O)N[C@@H](Cc1ccc(O)cc1)C(=O)N[C@@H](CCCCN)C(=O)N[C@H](C(=O)N1CCC[C@H]1C(=O)N[C@@H](CO)C(N)=O)C(C)C` [7-mer KP, NH2-Asp-Leu-Tyr-Lys-Val-Pro-Ser-COOH], the viability at 24 h, 20 μM in data set [1] (Raw264.7 cell viability) turned out to be 81.2 ± 3.43%. In data set [2], the “bioactivity / inhibitory activity relative to 7-mer (in words)” value is listed as “could sustain 7-mer bioactivity, only partly”.

Take `CC(=O)N[C@@H](CC(=O)O)C(=O)N[C@@H](CC(C)C)C(=O)N[C@@H](Cc1ccc(O)cc1)C(=O)N[C@@H](CCCNC(=N)N)C(=O)N[C@@H](CC(C)C)C(=O)N[C@@H](CCCNC(=N)N)C(=O)N[C@@H](CO)C(N)=O` [7-mer (V→L), NH2-Asp-Leu-Tyr-Arg-Leu-Arg-Ser-COOH]: in data set [1] (Raw264.7 cell viability), the viability at 24 h, 20 μM stood at 61.1 ± 3.96%. Moreover, the “bioactivity / inhibitory activity relative to 7-mer (in words)” value in data set [2] is reported as “could sustain 7-mer bioactivity, only partly; also recorded: relatively the same bioactivity that is similar to the 7-mer”.

Take `CC(=O)N[C@@H](CC(=O)O)C(=O)N[C@@H](CC(C)C)C(=O)N[C@@H](Cc1ccc(O)cc1)C(=O)N[C@@H](CCCNC(=N)N)C(=O)N[C@@H](CCC(N)=O)C(=O)N[C@@H](CCCCN)C(=O)N[C@@H](CO)C(N)=O` [7-mer QK, NH2-Asp-Leu-Tyr-Arg-Gln-Lys-Ser-COOH]: in data set [1] (Raw264.7 cell viability), the viability at 24 h, 20 μM was 77.7 ± 3.02%. The “bioactivity / inhibitory activity relative to 7-mer (in words)” value in data set [2] is given as “could sustain 7-mer bioactivity, only partly”.

Turning to `CSCC[C@H](NC(=O)[C@H](CCCNC(=N)N)NC(=O)[C@H](Cc1ccc(O)cc1)NC(=O)[C@H](CC(C)C)NC(=O)[C@H](CC(=O)O)NC(C)=O)C(=O)N[C@@H](CCCCN)C(=O)N[C@@H](CO)C(N)=O` [7-mer MK, NH2-Asp-Leu-Tyr-Arg-Met-Lys-Ser-COOH], the viability at 24 h, 20 μM in data set [1] (Raw264.7 cell viability) stood at 81.4 ± 0.64%. For the same molecule, in data set [2], the “bioactivity / inhibitory activity relative to 7-mer (in words)” value is “could sustain 7-mer bioactivity, only partly”.

For `CC(=O)N[C@@H](CC(=O)O)C(=O)N[C@@H](CC(C)C)C(=O)N[C@@H](Cc1ccc(O)cc1)C(=O)N[C@@H](CCCNC(=N)N)C(=O)N[C@@H](C)C(=O)N[C@@H](CCCNC(=N)N)C(=O)N[C@@H](CO)C(N)=O` [7-mer Va, NH2-Asp-Leu-Tyr-Arg-Ala-Arg-Ser-COOH], the viability at 24 h, 20 μM in data set [1] (Raw264.7 cell viability) came out at 97.7 ± 0.6%.

As for `CC(=O)N[C@@H](C)C(=O)N[C@@H](CC(C)C)C(=O)N[C@@H](Cc1ccc(O)cc1)C(=O)N[C@@H](CCCNC(=N)N)C(=O)N[C@H](C(=O)N[C@@H](CCCNC(=N)N)C(=O)N[C@@H](CO)C(N)=O)C(C)C` [7-mer Da, NH2-Ala-Leu-Tyr-Arg-Val-Arg-Ser-COOH], in data set [1] (Raw264.7 cell viability), the viability at 24 h, 20 μM was found to be 52.9 ± 0.84%. Besides, in data set [2], the “bioactivity / inhibitory activity relative to 7-mer (in words)” value is recorded as “could sustain the inhibitory activity”.

Take `CC(=O)N[C@@H](CC(C)C)C(=O)N[C@@H](CC(C)C)C(=O)N[C@@H](Cc1ccc(O)cc1)C(=O)N[C@@H](CCCNC(=N)N)C(=O)N[C@H](C(=O)N[C@@H](CCCNC(=N)N)C(=O)N[C@@H](CO)C(N)=O)C(C)C` [7-mer (D→L), NH2-Leu-Leu-Tyr-Arg-Val-Arg-Ser-COOH]: in data set [1] (Raw264.7 cell viability), the viability at 24 h, 20 μM worked out at 57.6 ± 2.65%. In data set [2], the “bioactivity / inhibitory activity relative to 7-mer (in words)” value is on record as “could sustain 7-mer bioactivity, only partly; also recorded: relatively the same bioactivity that is similar to the 7-mer”.

In the case of `CC(=O)N[C@@H](CC(=O)O)C(=O)N[C@@H](CC(C)C)C(=O)N[C@H](Cc1ccc(O)cc1)C(=O)N[C@@H](CCCNC(=N)N)C(=O)N[C@H](C(=O)N[C@@H](CCCNC(=N)N)C(=O)N[C@@H](CO)C(N)=O)C(C)C` [7-mer DY, NH2-Asp-Leu-(D-Tyr)-Arg-Val-Arg-Ser-COOH], the viability at 24 h, 20 μM in data set [1] (Rar264.7 cell viability) turned out to be 107.5 ± 0.63%. Moreover, the “bioactivity / inhibitory activity relative to 7-mer (in words)” value in data set [2] is given as “lose its biological activity”.

Turning to `CC(=O)N[C@@H](CC(N)=O)C(=O)N[C@H](C(=O)N[C@@H](Cc1ccc(O)cc1)C(=O)N[C@@H](CCCNC(=N)N)C(=O)N[C@H](C(=O)N[C@@H](CCCNC(=N)N)C(=O)N[C@@H](CO)C(N)=O)C(C)C)C(C)C` [7-mer NV, NH2-Asn-Val-Tyr-Arg-Val-Arg-Ser-COOH], the viability at 24 h, 20 μM in data set [1] (Raw264.7 cell viability) amounted to 74.8 ± 1.73%. For the same molecule, the “bioactivity / inhibitory activity relative to 7-mer (in words)” value in data set [2] is “could sustain 7-mer bioactivity, only partly”.

In the case of `CC(=O)N[C@@H](CC(=O)O)C(=O)N[C@@H](CC(C)C)C(=O)N[C@@H](Cc1ccc(O)cc1)C(=O)N[C@H](CCCNC(=N)N)C(=O)N[C@H](C(=O)N[C@@H](CCCNC(=N)N)C(=O)N[C@@H](CO)C(N)=O)C(C)C` [7-mer DR, NH2-Asp-Leu-Tyr-(D-Arg)-Val-Arg-Ser-COOH], the viability at 24 h, 20 μM in data set [1] (Rar264.7 cell viability) stood at 100 ± 2.58%. Also, in data set [2], the “bioactivity / inhibitory activity relative to 7-mer (in words)” value was “lose its biological activity”.

For `CC(=O)N[C@@H](CC(=O)O)C(=O)N[C@@H](CC(C)C)C(=O)N[C@@H](C)C(=O)N[C@@H](CCCNC(=N)N)C(=O)N[C@H](C(=O)N[C@@H](CCCNC(=N)N)C(=O)N[C@@H](CO)C(N)=O)C(C)C` [7-mer Ya, NH2-Asp-Leu-Ala-Arg-Val-Arg-Ser-COOH], in data set [1] (Raw264.7 cell viability), the viability at 24 h, 20 μM worked out at 97.6 ± 0.56%.

For the molecule `CC(=O)N[C@@H](CC(=O)O)C(=O)N[C@@H](CC(C)C)C(=O)N[C@@H](Cc1ccc(O)cc1)C(=O)N[C@@H](C)C(=O)N[C@H](C(=O)N[C@@H](CCCNC(=N)N)C(=O)N[C@@H](CO)C(N)=O)C(C)C` [7-mer Ra, NH2-Asp-Leu-Tyr-Ala-Val-Arg-Ser-COOH], the viability at 24 h, 20 μM in data set [1] (Raw264.7 cell viability) turned out to be 99.5 ± 1.51%.

As to `CC(=O)N[C@@H](CC(=O)O)C(=O)N[C@@H](CC(C)C)C(=O)N[C@@H](Cc1ccc(O)cc1)C(=O)N[C@@H](CCCNC(=N)N)C(=O)N[C@H](C(=O)N[C@@H](C)C(=O)N[C@@H](CO)C(N)=O)C(C)C` [7-mer R2a, NH2-Asp-Leu-Tyr-Arg-Val-Ala-Ser-COOH], in data set [1] (Raw264.7 cell viability), the viability at 24 h, 20 μM was determined as 94.6 ± 1.65%.

Consider `CC(=O)N[C@@H](CC(=O)O)C(=O)N[C@@H](CC(C)C)C(=O)N[C@@H](Cc1ccc(O)cc1)C(=O)N[C@@H](CCCNC(=N)N)C(=O)N[C@H](C(=O)N[C@@H](CCCNC(=N)N)C(=O)N[C@@H](C)C(N)=O)C(C)C` [7-mer Sa, NH2-Asp-Leu-Tyr-Arg-Val-Arg-Ala-COOH], for which the viability at 24 h, 20 μM in data set [1] (Raw264.7 cell viability) is 93.1 ± 2.47%.

“NH2-Asp-Leu-Tyr-Arg-Val-Arg-COOH (DLYRVR; not fully specified (N-terminus, C-terminus); printed as NH2-Asp-Leu-Tyr-Arg-Val-Arg-COOH) [control peptide, serine residue of the 7-mer deleted, reference compound]”: the “bioactivity / inhibitory activity relative to 7-mer (in words)” value in data set [2] is reported as “does not possess any biological function”.

One may read the viability as a read-out of living cells in per cent, often relative to untreated cells.
